Experimental data: patent publication US20250288687A1, “COMBINATION OF ANTIBODY-DRUG CONJUGATES AND DNMT INHIBITORS” (priority 2022, published 2025)

Legend:
[1] = tested on: DLD-1 xenograft mouse model; assay: Antitumor test, IMMU-132 with or without decitabine pre-treatment; type: in vivo, BALB/c-nu mice; conditions: IMMU-132 10 mg/kg IV Day 7, 14; with vs without DAC 0.5 mg/kg SC Day 0-4 pre-treatment; Day 28, Welch's t-test; FIG. 15
Experimental: Female BALB/c-nu mice aged 5 weeks (The Jackson Laboratory Japan, Inc.) were used, following 5 days acclimatization before entry into the study.
(§1) 3×10^6 of DLD-1 cells suspended in saline were implanted subcutaneously onto the flank of the mice. The major axis and the minor axis of the tumor were measured twice a week with an electronic digital caliper and the tumor volume was calculated by the following equation:
When the tumor volume reached approximately 100-150 mm^3, the tumor-bearing mice were randomly assigned to the treatment groups (Day 0) as shown in Table 2.
Statistical significance between IMMU-132 group and Decitabine+IMMU-132 group was evaluated using Welch's t-test on the tumor volumes at the day of the final measurement (Day 28).
Decitabine (DAC) was dissolved with Phosphate-buffered saline (PBS) and subcutaneously administered to the mice. IMMU-132 was dissolved with ABS buffer (10 mM Acetate buffer [pH5.5], 5% sorbitol) and intravenously administered to the tail vein of the mice. The dose volume of the compounds for each mouse was calculated based on the latest individual body weight measured within 2 days before dosing. DAC was subcutaneously administered at 0.5 mg/kg once a day from Day 0 to Day 4 (5 dosing in total). IMMU-132 was intravenously administered at 10 mg/kg to the tail vein on Day 7 and Day 14 (Weekly dosing×2).

[2] = tested on: xenograft cell lines of metaplastic cancer origin and mesenchymal subtype breast cancer cell lines; conditions: sacituzumab govitecan combined with decitabine; cited from earlier work
DLD-1 cells [3] = assay: Cell growth inhibition study, DS-1062a with or without decitabine pre-treatment (CellTiter-Glo); type: cell-based, Human; conditions: DAC (1, 0.3, 0.1 μM, 3 days) treated vs untreated cells, DS-1062a 0.1-100 nM, 6 days, FIG. 12A
Experimental: (§2) Human colorectal cancer cell lines DLD-1 and HCT-15, obtained from American Type Culture Collection (ATCC), were incubated with RPMI1640 medium supplemented with 10% (v/v) heat-inactivated FBS, 1% (v/v) penicillin-streptomycin solution and 1 mM sodium pyruvate (Medium), with or without Decitabine (DAC) (Tokyo Chemical Industry Co., Ltd) at 1, 0.3 and 0.1 μM at 37° C. under 5% CO2 for 3 days. The cells were harvested and re-seeded at 1000 cells/80 μL/well into 96-well black clear bottom plates, and incubated overnight at 37° C. under 5% CO2. Then 20 μL of the DS-1062a solutions diluted with the Medium at the concentrations from 500 nM to 0.5 nM were added into the wells and incubated for 6 days for DLD-1 cells, and for 8 days for HCT-15 cells, respectively. The final concentrations of DS-1062a were 100, 10, 1 and 0.1 nM. After the incubation, the cellular ATP levels were measured using CellTiter-Glo Luminescent Cell Viability Assay (Promega) and a microplate reader.
(§3) Cell viability, defined as relative percent to the value of DS-1062a non-treated cells in each group treated with or without DAC, was assessed (N=1 (triplicate), mean±SD).
(§4) Individual cell viability (%) was calculated by the following equation:
(§5) [formula] • T: individual luminescence intensity of the wells treated with DS-1062a at each concentration • C: mean luminescence intensity of the wells treated without DS-1062a

HCT-15 cells = assay: as above; type: cell-based, Human; conditions: DAC (1, 0.3, 0.1 μM, 3 days) treated vs untreated cells, DS-1062a 0.1-100 nM, 8 days, FIG. 12B
Experimental: as §2, §3, §4, §5

[4] = tested on: DLD-1 xenograft mouse model; assay: Antitumor test, DS-1062a with or without decitabine pre-treatment; type: in vivo, BALB/c-nu mice; conditions: DS-1062a 10 mg/kg IV Day 7; DAC 0.5 mg/kg SC Day 0-4 pretreated vs untreated group; Day 28, Welch's t-test, P<0.05; FIG. 13
Experimental: Female BALB/c-nu mice aged 5-6 weeks (The Jackson Laboratory Japan, Inc.) were used, following 4 days acclimatisation before entry into the study.
as §1
When the tumor volume reached approximately 100-150 mm^3, the tumor-bearing mice were randomly assigned to treatment groups (Day 0) as shown in Table 1:
Decitabine (Tokyo Chemical Industry Co., Ltd) was dissolved and diluted with Phosphate-buffered saline (PBS) and subcutaneously administered to the mice. DS-1062a solution was diluted with ABS buffer (10 mM Acetate buffer [pH5.5], 5% sorbitol) and intravenously administered to the tail vein of the mice. The dose of the compounds for each mouse was calculated based on the individual body weight on the day of dosing. Decitabine was subcutaneously administered at 0.5 mg/kg once a day from Day 0 to Day 4 (5 dosing in total). […] Statistical significance between the ‘DS-1062a’ group and the ‘Decitabine+DS-1062a’ group was evaluated using Welch's t-test on the tumor volumes at the day of the final measurement (Day 28).

DLD-1 cells [5] = assay: Cell growth inhibition study, DS-1062a with or without azacitidine pre-treatment (CellTiter-Glo); type: cell-based, Human; conditions: AZA (10, 3.3, 1.1 μM, 3 days) treated vs AZA untreated cells, DS-1062a 0.1-100 nM, 6 days, FIG. 14
Experimental: Human colorectal cancer cell line DLD-1 was incubated with RPMI1640 medium supplemented with 10% (v/v) heat-inactivated FBS (Medium), with or without Azacitidine (AZA) at 10, 3.3 and 1.1 μM at 37° C. under 5% CO2 for 3 days. The cells were harvested and re-seeded at 1000 cells/90 μL/well into a 96-well black clear bottom plate, and incubated overnight at 37° C. under 5% CO2. Then 10 μL of the DS-1062a solutions diluted with the Medium at the concentrations from 1000 nM to 1 nM were added into the wells and incubated for 6 days. The final concentrations of DS-1062a were 100, 10, 1 and 0.1 nM. After the incubation, the cellular ATP levels were measured using CellTiter-Glo Luminescent Cell Viability Assay (Promega Corporation) and a microplate reader.
Cell viability, defined as relative percent to the value of DS-1062a non-treated cells in each group treated with or without AZA, was assessed (N=1 (triplicate), mean±SD).
Individual cell viability (%) was calculated by the following equation;
as §5

[6] = tested on: TROP2 and SLFN11 expression; conditions: decitabine treatment; cited from earlier work

Sacituzumab govitecan [IMMU-132]
antitumor activity (tumor volume) [1]: not significantly different | antitumor efficacy [2]: enhances

datopotamab deruxtecan [DS-1062a]
cell growth inhibitory activity (cell viability) (DLD-1 cells [3]): enhanced | cell growth inhibitory activity (cell viability) (HCT-15 cells): enhanced | antitumor activity (tumor volume) [4]: significantly enhanced | cell growth inhibitory activity (cell viability) (DLD-1 cells [5]): enhanced

Nc1ncn([C@H]2C[C@H](O)[C@@H](CO)O2)c(=O)n1 [decitabine, 5-aza-2′-deoxycytidine]
TROP2 and SLFN11 expression [6]: upregulates
